Source: US10307413B2, “Tetrahydro- and dihydro-isoquinoline PRMT5 inhibitors and uses thereof” (Epizyme, Inc., priority 2013, dated 2019)
Read-outs that look alike come from different tables or passages of the source.

Assays:
[1] = system: symmetric di-methyl arginine in Z-138 cells; test: Z-138 Methylation Assay (In Cell Western for symmetric di-methyl arginine and DNA content); type: cell-based; conditions: Homo sapiens, read-out: ICW EC50
Summary of the method: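 Z-138 cells (50,000 cells/mL) treated with compound 96 h at 37 °C, then fixed and stained for symmetric di-methyl arginine (800 nm) with DRAQ5 DNA counterstain (700 nm) on Licor Odyssey.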

Z-138 cell line = test: Z-138 Proliferation Assay (Cell Titer Glo, 5 days); type: cell-based; conditions: Homo sapiens, 120 h, Z-138 cells, 5 days, read-out: Proliferation EC50
Summary of the method: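 Z-138 cells exposed 5 days at 37 °C, 5% CO2 to nine-point 3-fold dilutions (final top 20 μM, 0.2% DMSO), in triplicate. Viability read as ATP by CellTiter-Glo luminescence; IC50 from 4-parameter fit of normalized dose-response curves.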

Compound	EC50 [1] [nM]	EC50 ([1]; In Cell Western methylation) [nM]	EC50 (Z-138 cell line) [nM]	EC50 (Z-138 cell line; Cell Titer Glo) [nM]
O=C(NC[C@H](O)CN1CCc2ccccc2C1)c1n[nH]c2ccccc12 [Compound 242]	101 to 1000	–	1000 to 10000	–
CC(=O)N1CCC(Nc2cc(C(=O)NC[C@@H](O)CN3CCc4ccccc4C3)ncn2)CC1 [Compound 687]	–	< 100	–	101 to 1000
CN(C[C@H](O)CN1CCc2ccccc2C1)C(=O)c1cc(NC2CCOCC2)ncn1 [Compound 232]	101 to 1000	–	1000 to 10000	–
O=C(NC[C@H](O)CN1CCc2ccccc2C1)c1c(O)ccc2ccccc12 [Compound 327]	101 to 1000	–	> 20000	–
CN1CCC(N(C)c2cccc(C(=O)NCC(O)CN3CCc4ccccc4C3)c2)CC1 (stereo not shown) [Compound 131]	101 to 1000	–	1000 to 10000	–
O=C(NCC(O)CN1CCc2ccccc2C1)c1ccc(NC2CCOCC2)cc1 (stereo not shown) [Compound 66]	101 to 1000	–	1000 to 10000	–
CS(=O)(=O)Nc1cccc(C(=O)NCC(O)CN2CCc3ccccc3C2)c1 (stereo not shown) [Compound 24]	101 to 1000	–	1000 to 10000	–
Cn1nccc1C(=O)NCC(O)CN1CCc2ccccc2C1 (stereo not shown) [Compound 150]	101 to 1000	–	> 20000	–
CNCCN(C)c1cc(C(=O)NC[C@H](O)CN2CCc3ccccc3C2)ccn1 [Compound 233]	101 to 1000	–	1000 to 10000	–
CN(C[C@H](O)CN1CCc2ccccc2C1)C(=O)c1cccc(NC2CCOCC2)c1 [Compound 111]	101 to 1000	–	1000 to 10000	–
CN1CCOC(CNc2cc(C(=O)NC[C@H](O)CN3CCc4ccccc4C3)ccn2)C1 (stereo partly shown) [Compound 265]	101 to 1000	–	1000 to 10000	–

Continued, in another order:

EC50 [1] [nM]	EC50 ([1]; In Cell Western methylation) [nM]	Compound	EC50 (Z-138 cell line) [nM]	EC50 (Z-138 cell line; Cell Titer Glo) [nM]
101 to 1000	–	CNC(=O)CCCN1CCN(Cc2cccc(C(=O)NCC(O)CN3CCc4ccccc4C3)c2)CC1 (stereo not shown) [Compound 175]	1000 to 10000	–
< 100	–	Cc1ccc2cc(C(=O)NCC(O)CN3CCc4ccccc4C3)ccc2n1 (stereo not shown) [Compound 84, N-(3-(3,4-dihydroisoquinolin-2(1H)-yl)-2-hydroxypropyl)-2-methylquinoline-6-carboxamide]	1000 to 10000	–
< 100	–	O=C(NCC(O)CN1CCc2ccccc2C1)c1ccc(-n2cncn2)cc1 (stereo not shown) [Compound 110]	1000 to 10000	–
< 100	–	CC(=O)N1CCC(Nc2cccc(C(=O)NCC(O)CN3CCc4ccccc4C3)c2)C1 (stereo not shown) [Compound 121]	101 to 1000	–
< 100	–	O=C(NC[C@H](O)CN1CCc2ccccc2C1)c1cc(NC2CN(CC(F)(F)F)C2)ncn1 [Compound 282]	1000 to 10000	–
< 100	–	O=C(NC[C@H](O)CN1CCc2ccccc2C1)c1cc(NC2CCN(CC(F)(F)F)C2)ncn1 (stereo partly shown) [Compound 182]	1000 to 10000	–
< 100	–	Cn1nc(NC2CCOCC2)cc1C(=O)NCC(O)CN1CCc2ccccc2C1 (stereo not shown) [Compound 311]	< 100	–
< 100	–	O=C(NC[C@H](O)CN1CCc2ccccc2C1)c1cccc(-c2ccccn2)c1 [Compound 20]	101 to 1000	–
< 100	–	CNCCNc1cc(C(=O)NC[C@H](O)CN2CCc3ccccc3C2)ccn1 [Compound 314]	10000 to 50000	–
< 100	–	CN1CCCC(CNc2cc(C(=O)NC[C@H](O)CN3CCc4ccccc4C3)ccn2)C1 (stereo partly shown) [Compound 264]	1000 to 10000	–
< 100	–	Cn1nccc1Nc1cc(C(=O)NC[C@H](O)CN2CCc3ccccc3C2)ccn1 [Compound 325]	101 to 1000	–
< 100	–	O=C(NCC(O)CN1CCc2ccccc2C1)c1cccc(-c2ccccn2)c1 (stereo not shown) [Compound 1, N-(3-(3,4-dihydroisoquinolin-2(1H)-yl)-2-hydroxypropyl)-3-(pyridin-2-yl)benzamide]	1000 to 10000	–
< 100	–	O=C(NCC(O)CN1CCc2ccccc2C1)c1cccc(OCCN2CCOCC2)c1 (stereo not shown) [Compound 133]	1000 to 10000	–
< 100	–	CC(=O)N1CC[C@H](Nc2cccc(C(=O)NC[C@H](O)CN3CCc4ccccc4C3)c2)C1 [Compound 266]	101 to 1000	–
< 100	–	CC(C)N1CCC(Nc2cccc(C(=O)NCC(O)CN3CCc4ccccc4C3)c2)CC1 (stereo not shown) [Compound 103]	10000 to 50000	–
